According to PubChem BioAssay (NCI):
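1) Cells in 96-well plates. 2) Compound, 48 h, 5 concentrations. 3) Linear interpolation between surrounding doses. 4) Unreached endpoint = highest concentration. TGI is the concentration that stops growth completely.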

tested on: HCT-116 colon; assay: growth of human tumour cells (NCI), 48 h

Going from `Cc1ccc(C2SCC(=O)N2c2ccc(-n3c(-c4ccccc4)nc4ccccc4c3=O)cc2)cc1` (stereo unspecified) to `CCOC1(OCC)C2C=CC1C(COS(=O)(=O)c1ccc(C)cc1)C2COS(=O)(=O)c1ccc(C)cc1` (stereo unspecified), the TGI rises from 23.1 µM to 77.1 µM (3.3-fold).

First: O=[N+]([O-])c1ccc(CN(CCCl)OCCCl)cc1
Second: CC1=NN(c2nc(N)nc(/C(C#N)=C\c3ccc([N+](=O)[O-])s3)n2)C(C)(C)C1
The TGI of the first is higher: > 100 µM for the first, 1.23 µM for the second.

First: O=c1[nH]cnc2c1cnn2Cc1cn(CCCCO)nn1
Second: Cc1[nH]c(=O)nc2nc3ccc(Cl)cc3c(NCCNCCO)c12
The TGI of the first is higher: > 100 µM for the first, 18.5 µM for the second.

`CN1CCc2c([nH]c3ccccc23)C1` and `CC(C)(C)OC(=O)N(CCCCN(CCCNC(=O)C(F)(F)F)C(=O)OC(C)(C)C)CCCNC(=O)C(F)(F)F` cannot be ordered by TGI: > 100 µM for the first, > 100 µM for the second.

tested on: HS 578T breast; assay: growth of human tumour cells (NCI), 48 h

`O=[N+]([O-])C[C@@]12O[C@]3(O)C4C5CC(C6C5C3C61)C42` (stereo partly specified) and `CC1=NN(c2nc(N)nc(/C(C#N)=C\c3ccc([N+](=O)[O-])s3)n2)C(C)(C)C1` cannot be ordered by TGI: > 100 µM for the first, > 100 µM for the second.

`C=C(Cl)C(=CCl)CCC(Br)C(C)(C)Cl` (mixture of isomers) and `CN(CCSCCN(C)C(=O)OC(C)(C)C)C(=O)OC(C)(C)C` cannot be ordered by TGI: > 10 µM for the first, > 100 µM for the second.

Compared with `CN1C(=O)c2ccccc2OC12C=Cc1c(ccc3ccccc13)O2` (stereo unspecified), `Cc1ccc(C2SCC(=O)N2c2ccc(-n3c(-c4ccccc4)nc4ccccc4c3=O)cc2)cc1` (stereo unspecified) is 2.4-fold higher in TGI: 33.1 µM for the first, 77.9 µM for the second.

`CCCC(=O)NC(NC1CCCCC1)(C(=O)OCC)C(F)(F)F` (stereo unspecified) and `CC(C)NC(=O)OCc1c(COC(=O)NC(C)C)c(-c2cc[n+](COC(=O)C3CC3)cc2)n2c1CCC2` cannot be ordered by TGI: > 100 µM for the first, > 100 µM for the second.

`Cc1ccc2c(c1)C(=S)N1CSCC1c1nncn1-2` (stereo unspecified) and `CN1CCc2c([nH]c3ccccc23)C1` cannot be ordered by TGI: > 100 µM for the first, > 100 µM for the second.

Going from `COC(=O)C1=C(C(=O)OC)N(c2ccc(OC)cc2[N+](=O)[O-])C(c2ccc(C)cc2)=CC1c1ccc(OC)cc1OC` (stereo unspecified) to `CCOC1(OCC)C2C=CC1C(COS(=O)(=O)c1ccc(C)cc1)C2COS(=O)(=O)c1ccc(C)cc1` (stereo unspecified), the TGI rises from 79.5 µM to > 100 µM.

`COc1cccc(C2c3cc4c(cc3OC(N3CCCCC3)C2C)OCO4)c1O` (stereo unspecified) and `CC1=C(C)CC2C(=O)N(c3cc(C(C)(C)C)ccc3C(C)(C)C)C(=O)C2C1` (stereo unspecified) cannot be ordered by TGI: > 26.4 µM for the first, 56.8 µM for the second.

`O=c1[nH]nnc2c1sc1ncccc12` and `O=c1[nH]cnc2c1cnn2Cc1cn(CCCCO)nn1` cannot be ordered by TGI: > 100 µM for the first, > 100 µM for the second.

Going from `O=[N+]([O-])c1ccc(CN(CCCl)OCCCl)cc1` to `Cc1[nH]c(=O)nc2nc3ccc(Cl)cc3c(NCCNCCO)c12`, the TGI falls from > 100 µM to 31.8 µM.

In the case of `CC(C)(C)OC(=O)N(CCCCN(CCCNC(=O)C(F)(F)F)C(=O)OC(C)(C)C)CCCNC(=O)C(F)(F)F`, the TGI is reported as > 100 µM.

tested on: MDA-MB-435; assay: growth of human tumour cells (NCI), 48 h

Going from `O=[N+]([O-])C[C@@]12O[C@]3(O)C4C5CC(C6C5C3C61)C42` (stereo partly specified) to `CC1=NN(c2nc(N)nc(/C(C#N)=C\c3ccc([N+](=O)[O-])s3)n2)C(C)(C)C1`, the TGI falls from > 100 µM to 0.405 µM.

`C=C(Cl)C(=CCl)CCC(Br)C(C)(C)Cl` (mixture of isomers) and `CN(CCSCCN(C)C(=O)OC(C)(C)C)C(=O)OC(C)(C)C` cannot be ordered by TGI: > 10 µM for the first, > 100 µM for the second.

`CN1C(=O)c2ccccc2OC12C=Cc1c(ccc3ccccc13)O2` (stereo unspecified) and `Cc1ccc(C2SCC(=O)N2c2ccc(-n3c(-c4ccccc4)nc4ccccc4c3=O)cc2)cc1` (stereo unspecified) cannot be ordered by TGI: > 24.5 µM for the first, 65.3 µM for the second.

`CCCC(=O)NC(NC1CCCCC1)(C(=O)OCC)C(F)(F)F` (stereo unspecified) and `CC(C)NC(=O)OCc1c(COC(=O)NC(C)C)c(-c2cc[n+](COC(=O)C3CC3)cc2)n2c1CCC2` cannot be ordered by TGI: > 100 µM for the first, > 100 µM for the second.

`Cc1ccc2c(c1)C(=S)N1CSCC1c1nncn1-2` (stereo unspecified) and `CN1CCc2c([nH]c3ccccc23)C1` cannot be ordered by TGI: > 100 µM for the first, > 100 µM for the second.

`COC(=O)C1=C(C(=O)OC)N(c2ccc(OC)cc2[N+](=O)[O-])C(c2ccc(C)cc2)=CC1c1ccc(OC)cc1OC` (stereo unspecified) and `CCOC1(OCC)C2C=CC1C(COS(=O)(=O)c1ccc(C)cc1)C2COS(=O)(=O)c1ccc(C)cc1` (stereo unspecified) cannot be ordered by TGI: > 100 µM for the first, > 100 µM for the second.

Compared with `COc1cccc(C2c3cc4c(cc3OC(N3CCCCC3)C2C)OCO4)c1O` (stereo unspecified), `CC1=C(C)CC2C(=O)N(c3cc(C(C)(C)C)ccc3C(C)(C)C)C(=O)C2C1` (stereo unspecified) is higher in TGI: 6.82 µM for the first, > 100 µM for the second.

`O=c1[nH]nnc2c1sc1ncccc12` and `O=c1[nH]cnc2c1cnn2Cc1cn(CCCCO)nn1` cannot be ordered by TGI: > 100 µM for the first, > 100 µM for the second.

Compared with `O=[N+]([O-])c1ccc(CN(CCCl)OCCCl)cc1`, `Cc1[nH]c(=O)nc2nc3ccc(Cl)cc3c(NCCNCCO)c12` is lower in TGI: > 100 µM for the first, 25.7 µM for the second.

In the case of `CC(C)(C)OC(=O)N(CCCCN(CCCNC(=O)C(F)(F)F)C(=O)OC(C)(C)C)CCCNC(=O)C(F)(F)F`, the TGI is reported as > 100 µM.
